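Five concentrations, 48 hours, 96-well plates. GI50 marks 50% less growth.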 Activity calls are given as the source filed them. No stated cut-off is given here; in the data, active = GI50 up to about 1.1 µM and inactive = higher.
Experiments:
Test in all cases: growth of human tumour cells (NCI), 48 h
A549 = tested on: A549
ACHN = tested on: ACHN
CCRF-CEM = tested on: CCRF-CEM
EKVX = tested on: EKVX
HOP-92 = tested on: HOP-92
HT-29 = tested on: HT-29
KM12 = tested on: KM12
MDA-N = tested on: MDA-N
OVCAR-3 = tested on: OVCAR-3
OVCAR-4 = tested on: OVCAR-4
PC-3 = tested on: PC-3
SK-MEL-2 = tested on: SK-MEL-2
SK-MEL-5 = tested on: SK-MEL-5
SK-OV-3 = tested on: SK-OV-3
SN12C = tested on: SN12C
SNB-19 = tested on: SNB-19
SR = tested on: SR
HCC 2998 = tested on: HCC 2998
NCI-H522 = tested on: NCI-H522

Measured: GI50

O=C(N/N=C/c1ccc(Cl)cc1)c1cc(I)cc(I)c1O
inactive: A549 > 100 µM | ACHN > 100 µM | CCRF-CEM > 100 µM | EKVX > 100 µM | HOP-92 92.3 µM | HT-29 > 100 µM | KM12 > 100 µM | MDA-N > 100 µM | OVCAR-3 > 100 µM | OVCAR-4 > 100 µM | PC-3 > 100 µM | SK-MEL-2 > 100 µM | SK-MEL-5 > 100 µM | SK-OV-3 > 100 µM | SN12C > 100 µM | SNB-19 > 100 µM | SR 76.6 µM

O=S(=O)(O)c1ccc(O)c2ncc(Cl)cc12
inactive: A549 > 100 µM | ACHN > 100 µM | CCRF-CEM > 100 µM | EKVX > 100 µM | HCC 2998 > 100 µM | HOP-92 > 100 µM | HT-29 > 100 µM | KM12 > 100 µM | MDA-N > 100 µM | OVCAR-3 > 100 µM | OVCAR-4 > 100 µM | PC-3 > 100 µM | SK-MEL-2 > 100 µM | SK-MEL-5 > 100 µM | SN12C > 100 µM | SNB-19 > 100 µM | SR > 100 µM

N=C(N)NCCCC(NC(=O)OCCCCCCn1ccc(N)nc1=O)C(=O)O (stereo not given)
inactive: A549 > 100 µM | ACHN > 100 µM | CCRF-CEM > 100 µM | EKVX > 100 µM | HCC 2998 > 100 µM | HOP-92 > 100 µM | HT-29 > 100 µM | KM12 > 100 µM | MDA-N > 100 µM | OVCAR-3 > 100 µM | OVCAR-4 > 100 µM | PC-3 > 100 µM | SK-MEL-2 > 100 µM | SK-OV-3 > 100 µM | SN12C > 100 µM | SNB-19 > 100 µM | SR > 100 µM

Cc1nc(-c2ccc([N+](=O)[O-])cc2)cn2c1nc1ccccc12
inactive: A549 > 100 µM | CCRF-CEM > 100 µM | EKVX > 100 µM | HOP-92 70.5 µM | HT-29 > 100 µM | KM12 > 100 µM | MDA-N > 100 µM | OVCAR-3 > 100 µM | OVCAR-4 > 100 µM | PC-3 > 100 µM | SK-MEL-2 31.1 µM | SK-OV-3 18.9 µM | SN12C > 100 µM | SNB-19 65.8 µM | SR > 100 µM

CCN(CC)CCN1C(=O)C(=O)N(c2cccc3ccccc23)C1=O
inactive: A549 > 10 µM | ACHN > 10 µM | CCRF-CEM > 10 µM | EKVX > 10 µM | HCC 2998 > 10 µM | HT-29 > 10 µM | KM12 > 10 µM | MDA-N > 10 µM | NCI-H522 > 10 µM | OVCAR-3 > 10 µM | OVCAR-4 > 10 µM | PC-3 > 10 µM | SK-MEL-2 > 10 µM | SK-MEL-5 > 10 µM | SK-OV-3 > 10 µM | SN12C > 10 µM | SNB-19 > 10 µM | SR > 10 µM

COc1cc(COC(=O)N2CCCCC2C(=O)O)c([N+](=O)[O-])cc1OC (stereo not given)
inactive: A549 > 100 µM | ACHN > 100 µM | CCRF-CEM > 100 µM | EKVX > 100 µM | HCC 2998 > 100 µM | HOP-92 > 100 µM | HT-29 > 100 µM | KM12 > 100 µM | MDA-N > 100 µM | OVCAR-3 > 100 µM | PC-3 > 100 µM | SK-MEL-5 > 100 µM | SK-OV-3 > 100 µM | SN12C > 100 µM | SNB-19 > 100 µM | SR > 100 µM

Reference: ChEMBL document CHEMBL1201862, “PubChem BioAssay data set” (2004)
